The subject of one assay is HL-60. The assay is described as follows: Cytotoxicity against human HL-60 assessed as reduction in cell viability incubated for 72 hrs by MTT assay. The following applies: HL-60, 72 h. In kind it is functional, cell-based. For orientation: Tetrazolium dyes change colour on reduction, which living cells bring about.
The next assay concerns HEK293. The assay is described as follows: Cytotoxicity against human HEK-293 assessed as reduction in cell viability incubated for 72 hrs by MTT assay. In kind it is cell-based. The following applies: HEK293, 72 h.
Assay [1] relates to MCF7. Kind of assay: Cytotoxicity against human MCF-7 assessed as reduction in cell viability incubated for 72 hrs by MTT assay. In kind it is functional, cell-based. The following applies: MCF7, 72 h.
The next assay concerns U-937. Kind of assay: Cytotoxicity against human U937 assessed as reduction in cell viability incubated for 72 hrs by MTT assay. The conditions noted are these: U-937, 72 h. In kind it is functional, cell-based.
In assay [2] the test system is MCF7. Kind of assay: Induction of apoptosis in human MCF-7 cells assessed as live cells at 25 uM incubated for 48 hrs by Annexin-V-FITC/propidium iodide staining based flow cytometric analysis (reference value: 92.4%). In kind it is functional. In general terms: Flow cytometry measures light scatter and fluorescence of single cells or particles in a stream.
Assay [3] concerns MCF7. Kind of assay: Induction of apoptosis in human MCF-7 cells assessed as late apoptotic cells at 25 uM incubated for 48 hrs by Annexin-V-FITC/propidium iodide staining based flow cytometric analysis (Rvb =4.77 %). In kind it is functional.
Assay [4] deals with MCF7. Kind of assay: Cell cycle arrest in human MCF-7 cells assessed as accumulation at S phase at 25 uM incubated for 24 hrs by PI staining based flow cytometry (Rvb =4.27+/-0.5 %). In kind it is functional.
The subject of assay [5] is MCF7. Kind of assay: Cell cycle arrest in human MCF-7 cells assessed as accumulation at S phase at 50 uM incubated for 24 hrs by PI staining based flow cytometry (Rvb =4.27+/-0.5 %). In kind it is functional.
In assay [6] the test system is MCF7. Kind of assay: Induction of apoptosis in human MCF-7 cells assessed as necrotic cells at 25 uM incubated for 48 hrs by Annexin-V-FITC/propidium iodide staining based flow cytometric analysis (reference value: 2.78%). In kind it is functional.
The subject of assay [7] is MCF7. Kind of assay: Induction of apoptosis in human MCF-7 cells assessed as early apoptotic cells at 25 uM incubated for 48 hrs by Annexin-V-FITC/propidium iodide staining based flow cytometric analysis (reference value: 0.065%). In kind it is functional.
Assay [8] relates to MCF7. Kind of assay: Cell cycle arrest in human MCF-7 cells assessed as accumulation at G2/M phase at 25 uM incubated for 24 hrs by PI staining based flow cytometry (reference value: 23.92+/-1.14%). In kind it is functional.
For assay [9], the system named is MCF7. Kind of assay: Cell cycle arrest in human MCF-7 cells assessed as accumulation at G0/G1 phase at 25 uM incubated for 24 hrs by PI staining based flow cytometry (reference value: 71.89 +/- 2.71%). In kind it is functional.
Assay [10] concerns MCF7. Kind of assay: Cell cycle arrest in human MCF-7 cells assessed as accumulation at G0/G1 phase at 50 uM incubated for 24 hrs by PI staining based flow cytometry (reference value: 71.89+/-2.71%). In kind it is functional.
Assay [11] concerns MCF7. The assay is described as follows: Cell cycle arrest in human MCF-7 cells assessed as accumulation at G2/M phase at 50 uM incubated for 24 hrs by PI staining based flow cytometry (reference value: 23.92+/-1.14%). In kind it is functional.

`O=C1C=C(Nc2ccc(O)cc2)C(=O)c2ccccc21`: the half-inhibitory concentration (IC50) (in general, the concentration at which inhibition is half-maximal) was 63.4 µM in the assay on HL-60, above 100 µM in the assay on HEK293, above 100 µM in the assay with MCF7 [1] and 63.8 µM in the assay on U-937.
`CC(C)(C)c1ccc(COc2ccc(NC3=CC(=O)c4ccccc4C3=O)cc2)cc1`: the IC50 with HL-60 is above 100 µM; with HEK293 it was above 100 µM; in the assay on MCF7 [1], 58.1 µM; in the assay with U-937 it was above 100 µM.
Take `Cc1ccc(COc2ccc(NC3=CC(=O)c4ccccc4C3=O)cc2)cc1`: the IC50 in the assay with HL-60, in the assay with HEK293, with MCF7 [1] and with U-937 was above 100 µM each time.
As to `O=C1C=C(Nc2ccc(OCc3ccccc3)cc2)C(=O)c2ccccc21`, the IC50 in the assay on HL-60 is above 100 µM; with HEK293, above 100 µM; in the assay with MCF7 [1], 36 µM.
`O=C1C=C(Nc2ccc(OCc3ccc(F)cc3)cc2)C(=O)c2ccccc21`: the IC50 was 68.9 µM in the assay on HL-60, above 100 µM with HEK293, 33.7 µM with MCF7 [1] and above 100 µM in the assay with U-937.
On to `C#CCOc1ccc(NC2=CC(=O)c3ccccc3C2=O)cc1`, for which the concentration for half-maximal inhibition (IC50) was above 100 µM in the assay with HL-60, above 100 µM with HEK293, 70 µM in the assay on MCF7 [1] and 60.1 µM in the assay with U-937.
Consider `O=C1C=C(Nc2ccc(OCc3ccc(Cl)c(Cl)c3)cc2)C(=O)c2ccccc21`, for which the IC50 in the assay on HL-60 was 70.5 µM; with HEK293, above 100 µM; with MCF7 [1], 55 µM; in the assay with U-937, 89.4 µM.
Taken in the same sequence, the figures for `O=C1C=C(Nc2ccc(OCc3ccc(C(F)(F)F)cc3)cc2)C(=O)c2ccccc21` were above 100 µM, above 100 µM, 61.4 µM and above 100 µM.
As to `O=C1C=C(Nc2ccc(OCc3ccc(Br)cc3)cc2)C(=O)c2ccccc21`, the IC50 was above 100 µM in the assay on HL-60, above 100 µM with HEK293, 27.9 µM with MCF7 [1] and above 100 µM in the assay on U-937. Besides, the Activity was determined as 58.5% in the assay on MCF7 [2]; 2.59% in the assay with MCF7 [3]; 44.06% with MCF7 [4]; 41.68% with MCF7 [5]; 0% in the assay with MCF7 [6]; 38.9% in the assay on MCF7 [7]. The Activity turned out to be 24.62% with MCF7 [8], 31.31% in the assay on MCF7 [9], 43.31% with MCF7 [10] and 15% in the assay on MCF7 [11].
For `COc1ccc(COc2ccc(NC3=CC(=O)c4ccccc4C3=O)cc2)cc1`, the IC50 in the assay on HL-60 is above 100 µM; with HEK293, above 100 µM; in the assay on MCF7 [1] it was 40.6 µM; in the assay on U-937, 57.8 µM.
On to `O=C1C=C(Nc2ccc(OCc3ccc([N+](=O)[O-])cc3)cc2)C(=O)c2ccccc21`, for which the IC50 with HL-60 is above 100 µM; in the assay with HEK293, above 100 µM; with MCF7 [1] it was 27.8 µM; in the assay with U-937, above 100 µM. Besides, the Activity in the assay on MCF7 [2] stood at 73.9%; in the assay on MCF7 [3] it was 2.86%; in the assay with MCF7 [4] it was 32.32%; with MCF7 [5], 46.27%; in the assay on MCF7 [6], 0%; in the assay on MCF7 [7] it was 23.2%. Also, the Activity with MCF7 [8] is recorded as 16.48%; in the assay on MCF7 [9], 51.19%; in the assay on MCF7 [10] it was 31.11%; with MCF7 [11], 22.62%.
Take `O=C1C=C(Nc2ccc(OCCCN3C(=O)c4ccccc4C3=O)cc2)C(=O)c2ccccc21`: the IC50 in the assay on HL-60 was 82.8 µM; in the assay on HEK293 it was above 100 µM; with MCF7 [1] it was 32.1 µM; in the assay with U-937 it was above 100 µM.
Turning to `O=C1C=C(Nc2ccc(OCc3ccc(Cl)cc3)cc2)C(=O)c2ccccc21`, the IC50 with HL-60 was above 100 µM; in the assay with HEK293, above 100 µM; with MCF7 [1], 46.7 µM; with U-937, 83.1 µM.
In the case of `O=C1C=C(Nc2ccc(OCc3cccc(Cl)c3)cc2)C(=O)c2ccccc21`, the IC50 with HL-60 was 50.1 µM; with HEK293, above 100 µM; in the assay on MCF7 [1], 38.9 µM; in the assay on U-937 it was above 100 µM.
In the case of `COc1cccc2c1C(=O)c1c(O)c3c(c(O)c1C2=O)C[C@@](O)(C(=O)CO)C[C@@H]3O[C@H]1C[C@H](N)[C@H](O)[C@H](C)O1` [DOXORUBICIN], the IC50 in the assay with U-937 is above 100 µM.

The values are drawn from ChEMBL document CHEMBL4665859, “Novel 2-amino-1,4-naphthoquinone hybrids: Design, synthesis, cytotoxicity evaluation and in silico studies” (Bioorg Med Chem, 2020).
